Measurements: patent EP0341019A2, “Polyether antibiotic” (priority 1988, dated 1989)
Values after ≈ are worked out from the molar mass of the structure shown.

Assays:
[1] = test system: Staphylococcus aureus X400; assay type: cell-based; settings: X400, 24 h
[2] = test system: Haemophilus influenzae C.L.; assay type: cell-based; settings: 24 h
[3] = test system: Pseudomonas aeruginosa PS72; assay type: cell-based; settings: PS72, 24 h
[4] = test system: Clostridium perfringens 81; assay: microbe, parasite or virus in culture; assay type: cell-based; settings: Clostridium perfringens, 81, 24 h
[5] = test system: Bacteroides fragilis 111; assay type: cell-based; settings: Bacteroides fragilis, 111, 24 h
[6] = test system: Herpes simplex viruses (HSV I); assay: antiviral tissue-culture test; assay type: cell-based, Herpes simplex virus
[7] = test system: Eimeria acervulina H & C and Eimeria tenella Wis; assay: anticoccidial feed test in infected chickens, ionophore-sensitive strains; assay type: in vivo

## CC[C@@H](O)[C@]1(C)C[C@H](C)[C@@](O)([C@H]2C[C@H](C)[C@H]([C@]3(C)C[C@@H](O[C@H]4CC[C@H](OC)[C@@H](C)O4)[C@H]([C@]4(C)CC[C@@]5(O[C@H]([C@@H](C)[C@@H](OC)[C@H](C)C(=O)O)[C@H](C)[C@@H](OC)[C@H]5C)O4)O3)O2)O1 [Example A82810]
[1]
  MIC: 1 mg/L (≈ 1.19 µM)
[2]
  MIC: 128 mg/L (≈ 152 µM)
[3]
  MIC: 0.25 mg/L (≈ 0.297 µM)
[4]
  MIC: 0.5 mg/L (≈ 0.593 µM)
[5]
  MIC: 8 mg/L (≈ 9.49 µM)
[6]
  active at levels as low as: 1.56 µg/mL
[7]; 2 ppm
  AVERAGE INTESTINAL LESION SCORES: 1.2
  WEIGHT GAIN, PERCENT OF CONTROL: 98% OF CONTROL
[7]; 6 ppm
  AVERAGE INTESTINAL LESION SCORES: 0.4
  WEIGHT GAIN, PERCENT OF CONTROL: 91% OF CONTROL
[7]; 10 ppm
  AVERAGE INTESTINAL LESION SCORES: 0.3
  WEIGHT GAIN, PERCENT OF CONTROL: 80% OF CONTROL
